Assay results: patent US8247211B2, “Glycopeptide antibiotics” (American Cyanamid Company, priority 2001, dated 2012)
In brackets after ≈: the same amount, converted by molar mass.

What was measured:
Enterococcus sp. = experiment: In vitro antibacterial evaluation: minimum inhibitory concentration (MIC), broth dilution method; format: cell-based
Method in brief: (§1)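 Values are minimum inhibitory concentrations, meaning the smallest antibiotic concentration that stops growth of the organism. They come from broth dilution in Muller-Hinton II […] per NCCLS guidance (M7-A2), using 5×10^5 CFU/mL and concentrations from 64 to 0.06 μg/mL.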

Streptococcus sp. = experiment: as above; format: cell-based
Method in brief: as §1

Escherichia coli = experiment: as above; format: cell-based; conditions: strain GC 4560
Method in brief: as §1

Staphylococcus sp. = experiment: as above; format: cell-based; conditions: broth dilution, 18 hours at 35° C.
Method in brief: as §1

[1] = Anatomic pathology (heart and kidney histopathology) in mice; format: in vivo, CD-1 mice; conditions: 20 mg/kg intravenously daily for 9 days, microscopic histopathology on day 10
Method in brief: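 Histopathology on H&E-stained, paraffin-embedded sections, subjectively scored (slight, mild, moderate, marked, severe) relative to untreated controls. Dosing: glycopeptide antibiotics 20 mg/kg intravenously once daily ×9 days in 20-day-old CD-1 mice, n=5 per group including vehicle.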

[2] = tested on: Staphylococcus aureus-SMITH (GC 4543); experiment: Acute lethal infection in mice (ED50); format: in vivo; conditions: female CD-1 mice, intraperitoneal challenge, intravenous dose 30 min. after infection, 7 day survival ratios
Method in brief: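 IP bacterial challenge, female CD-1 mice; inoculum lethal to untreated controls in 24-48 hr. IV dosing in saline or 5% dextrose 30 min post-infection, 5 mice/dose. ED50 from 7-day survival, 3 tests pooled.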

## CC(c1ccccc1)C1NC(=O)CNC(=O)C(CO)NC(=O)C(C(O)C2CN(Cc3ccc(C(C)(C)C)cc3)C(=N)N2C2OC(CO)C(O)C(O)C2O)NC(=O)C(C(O)C2CNC(=N)N2)NC(=O)C(Cc2ccc(OC3OC(CO)C(OC4OC5COC6(OC5C(O)C4O)C4CC5CC(C4)CC6C5)C(O)C3O)cc2)NC1=O (stereo not drawn) [Example 77]
Enterococcus sp.; Enterococcus faecalis (GC 2242), broth dilution, 18 hours at 35° C.
  MIC Enterococcus faecalis (GC 2242): 16 µg/mL (≈ 10.2 µM)
Enterococcus sp.; Enterococcus faecalis (GC 2691), broth dilution, 18 hours at 35° C.
  MIC Enterococcus faecalis (GC 2691): 16 µg/mL (≈ 10.2 µM)
Enterococcus sp.; Enterococcus faecalis (GC 3059), broth dilution, 18 hours at 35° C.
  MIC Enterococcus faecalis (GC 3059): 16 µg/mL (≈ 10.2 µM)
Enterococcus sp.; strain ATCC 29212
  MIC Enterococcus faecalis (ATCC 29212): 16 µg/mL (≈ 10.2 µM)
Enterococcus sp.; strain GC 2242
  MIC Enterococcus faecalis (GC 2242): 16 µg/mL (≈ 10.2 µM)
Enterococcus sp.; strain GC 2243
  MIC Enterococcus faecium (GC 2243): 8 µg/mL (≈ 5.08 µM)
Enterococcus sp.; strain GC 2691
  MIC Enterococcus faecalis (GC 2691): 16 µg/mL (≈ 10.2 µM)
Enterococcus sp.; strain GC 3059
  MIC Enterococcus faecalis (GC 3059): 16 µg/mL (≈ 10.2 µM)
Enterococcus sp.; strain GC 4552
  MIC Enterococcus faecalis (GC 4552): 16 µg/mL (≈ 10.2 µM)
Enterococcus sp.; strain GC 4553
  MIC Enterococcus faecalis (GC 4553): 8 µg/mL (≈ 5.08 µM)
Enterococcus sp.; strain GC 4556
  MIC Enterococcus faecium (GC 4556): 16 µg/mL (≈ 10.2 µM)
Enterococcus sp.; strain GC 4557
  MIC Enterococcus faecium (GC 4557): 1 to 2 µg/mL
Enterococcus sp.; strain GC 4558
  MIC Enterococcus avium (GC 4558): 4 µg/mL (≈ 2.54 µM)
Enterococcus sp.; strain GC 6189
  MIC Enterococcus faecalis (GC 6189): 16 µg/mL (≈ 10.2 µM)
Streptococcus sp.; Streptococcus agalactiae (GC 4564), broth dilution, 18 hours at 35° C.
  MIC Streptococcus agalactiae (GC 4564): 1 µg/mL (≈ 0.635 µM)
Streptococcus sp.; Streptococcus pneumoniae (ATCC 6301), broth dilution, 18 hours at 35° C.
  MIC Streptococcus pneumoniae (ATCC 6301): 2 µg/mL (≈ 1.27 µM)
Streptococcus sp.; Streptococcus pneumoniae (GC 4565), broth dilution, 18 hours at 35° C.
  MIC Streptococcus pneumoniae (GC 4565): 2 to 4 µg/mL
Streptococcus sp.; Streptococcus pyogenes (GC 4563), broth dilution, 18 hours at 35° C.
  MIC Streptococcus pyogenes (GC 4563): 1 µg/mL (≈ 0.635 µM)
Streptococcus sp.; strain ATCC 6301
  MIC Streptococcus pneumoniae (ATCC 6301): 2 µg/mL (≈ 1.27 µM)
Streptococcus sp.; strain GC 4563
  MIC Streptococcus pyogenes (GC 4563): 1 µg/mL (≈ 0.635 µM)
Streptococcus sp.; strain GC 4564
  MIC Streptococcus agalactiae (GC 4564): 1 µg/mL (≈ 0.635 µM)
Streptococcus sp.; strain GC 4565
  MIC Streptococcus pneumoniae (GC 4565): 2 to 4 µg/mL
Escherichia coli
  MIC Escherichia coli (GC 4560): 4 µg/mL (≈ 2.54 µM)
Staphylococcus sp.
  MIC Coagulase Negative Staphylococcus (GC 4547): 4 µg/mL (≈ 2.54 µM)
  MIC Coagulase Negative Staphylococcus (GC 4548): 4 µg/mL (≈ 2.54 µM)
  MIC Coagulase Negative Staphylococcus (GC 4549): 4 to 8 µg/mL
  MIC Coagulase Negative Staphylococcus (GC 4551): 8 µg/mL (≈ 5.08 µM)
  MIC Coagulase Negative Staphylococcus (GC 6257): 2 µg/mL (≈ 1.27 µM)
  MIC Staphylococcus aureus (ATCC 29213): 8 to 16 µg/mL
  MIC Staphylococcus aureus (GC 1131): 16 µg/mL (≈ 10.2 µM)
  MIC Staphylococcus aureus (GC 3051): 8 to 16 µg/mL
  MIC Staphylococcus aureus (GC 3053): 16 µg/mL (≈ 10.2 µM)
  MIC Staphylococcus aureus (GC 4541): 4 to 8 µg/mL
  MIC Staphylococcus aureus (GC 4542): 8 to 16 µg/mL
  MIC Staphylococcus aureus (GC 4544): 16 µg/mL (≈ 10.2 µM)
  MIC Staphylococcus aureus (GC 4545): 8 µg/mL (≈ 5.08 µM)
  MIC Staphylococcus aureus SMITH (GC 4543): 8 µg/mL (≈ 5.08 µM)
  MIC Staphylococcus haemolyticus (GC 4546): 4 to 8 µg/mL
Staphylococcus sp.; strain SMITH GC 4543
  MIC Staphylococcus aureus-SMITH (GC 4543): 8 µg/mL (≈ 5.08 µM)
[1]
  Anatomical Pathology (Day 10), Heart: 0
  Anatomical Pathology (Day 10), Kidney: 0
[2]
  median effective dose (ED50), Staphylococcus aureus-SMITH (GC 4543): 4 mg/kg
